According to the NIST ThermoML archive (doi:10.1021/je900404r):
± gives the expanded uncertainty stated by the source.

Experiment: xn = mol fraction of the nth substance listed
Conditions: 101 kPa, Liquid, Vibrating tube method

**Q.** With `CCCCCl` [1-chlorobutane] + O=C1CCCCC1 as the compound, how does the mass density (288.15 K, x1 = 0.1152) read?
**A.** 945.58 ± 0.41 kg/m3

**Q.** And the mass density (288.15 K, x1 = 0.2084)?
**A.** 940.43 ± 0.41 kg/m3

**Q.** And the mass density (288.15 K, x1 = 0.3068)?
**A.** 934.95 ± 0.41 kg/m3

**Q.** And the mass density (288.15 K, x1 = 0.4067)?
**A.** 929.27 ± 0.41 kg/m3

**Q.** What about the mass density (288.15 K, x1 = 0.5041) of the same compound?
**A.** 923.6 ± 0.41 kg/m3

**Q.** What about the mass density (288.15 K, x1 = 0.5841) of the same compound?
**A.** 918.86 ± 0.41 kg/m3

**Q.** And the mass density (288.15 K, x1 = 0.692)?
**A.** 912.28 ± 0.41 kg/m3

**Q.** And the mass density (288.15 K, x1 = 0.7881)?
**A.** 906.18 ± 0.41 kg/m3

**Q.** And the mass density (288.15 K, x1 = 0.882)?
**A.** 900.11 ± 0.41 kg/m3

**Q.** What about the mass density (288.15 K, x1 = 1) of the same compound?
**A.** 892.1 ± 0.41 kg/m3

**Q.** What about the mass density (298.15 K, x1 = 0.1152) of the same compound?
**A.** 936.47 ± 0.41 kg/m3

**Q.** What about the mass density (298.15 K, x1 = 0.2084) of the same compound?
**A.** 931.18 ± 0.41 kg/m3

**Q.** What about the mass density (298.15 K, x1 = 0.3068) of the same compound?
**A.** 925.51 ± 0.41 kg/m3

**Q.** What about the mass density (298.15 K, x1 = 0.4067) of the same compound?
**A.** 919.65 ± 0.41 kg/m3

**Q.** And the mass density (298.15 K, x1 = 0.5041)?
**A.** 913.78 ± 0.41 kg/m3

**Q.** And the mass density (298.15 K, x1 = 0.5841)?
**A.** 908.86 ± 0.41 kg/m3

**Q.** And the mass density (298.15 K, x1 = 0.692)?
**A.** 902.02 ± 0.41 kg/m3

**Q.** What about the mass density (298.15 K, x1 = 0.7881) of the same compound?
**A.** 895.71 ± 0.41 kg/m3

**Q.** What about the mass density (298.15 K, x1 = 0.882) of the same compound?
**A.** 889.37 ± 0.41 kg/m3

**Q.** What about the mass density (298.15 K, x1 = 1) of the same compound?
**A.** 881.05 ± 0.41 kg/m3

**Q.** And the mass density (308.15 K, x1 = 0.1152)?
**A.** 927.34 ± 0.41 kg/m3

**Q.** What about the mass density (308.15 K, x1 = 0.2084) of the same compound?
**A.** 921.88 ± 0.41 kg/m3

**Q.** What about the mass density (308.15 K, x1 = 0.3068) of the same compound?
**A.** 916.03 ± 0.41 kg/m3

**Q.** What about the mass density (308.15 K, x1 = 0.4067) of the same compound?
**A.** 909.97 ± 0.41 kg/m3

**Q.** What about the mass density (308.15 K, x1 = 0.5041) of the same compound?
**A.** 903.89 ± 0.41 kg/m3

**Q.** What about the mass density (308.15 K, x1 = 0.5841) of the same compound?
**A.** 898.78 ± 0.41 kg/m3

**Q.** And the mass density (308.15 K, x1 = 0.692)?
**A.** 891.68 ± 0.41 kg/m3

**Q.** What about the mass density (308.15 K, x1 = 0.7881) of the same compound?
**A.** 885.12 ± 0.41 kg/m3

**Q.** And the mass density (308.15 K, x1 = 0.882)?
**A.** 878.54 ± 0.41 kg/m3

**Q.** What about the mass density (308.15 K, x1 = 1) of the same compound?
**A.** 869.86 ± 0.41 kg/m3

**Q.** And the mass density (318.15 K, x1 = 0.1152)?
**A.** 918.17 ± 0.41 kg/m3

**Q.** What about the mass density (318.15 K, x1 = 0.2084) of the same compound?
**A.** 912.54 ± 0.41 kg/m3

**Q.** What about the mass density (318.15 K, x1 = 0.3068) of the same compound?
**A.** 906.5 ± 0.41 kg/m3

**Q.** And the mass density (318.15 K, x1 = 0.4067)?
**A.** 900.22 ± 0.41 kg/m3

**Q.** And the mass density (318.15 K, x1 = 0.5041)?
**A.** 893.92 ± 0.41 kg/m3

**Q.** What about the mass density (318.15 K, x1 = 0.5841) of the same compound?
**A.** 888.63 ± 0.41 kg/m3

**Q.** And the mass density (318.15 K, x1 = 0.692)?
**A.** 881.25 ± 0.41 kg/m3

**Q.** And the mass density (318.15 K, x1 = 0.7881)?
**A.** 874.42 ± 0.41 kg/m3

**Q.** What about the mass density (318.15 K, x1 = 0.882) of the same compound?
**A.** 867.57 ± 0.41 kg/m3

**Q.** And the mass density (318.15 K, x1 = 1)?
**A.** 858.52 ± 0.41 kg/m3

**Q.** Which mass density (288.15 K, x1 = 0.1276) does the source give for `ClCCCCl` [1,3-dichloropropane] + O=C1CCCCC1 here?
**A.** 979.76 ± 0.41 kg/m3

**Q.** And the mass density (288.15 K, x1 = 0.227)?
**A.** 1001.99 ± 0.41 kg/m3

**Q.** What about the mass density (288.15 K, x1 = 0.3268) of the same compound?
**A.** 1024.79 ± 0.42 kg/m3

**Q.** What about the mass density (288.15 K, x1 = 0.4189) of the same compound?
**A.** 1046.27 ± 0.42 kg/m3

**Q.** And the mass density (288.15 K, x1 = 0.514)?
**A.** 1068.86 ± 0.42 kg/m3

**Q.** What about the mass density (288.15 K, x1 = 0.6112) of the same compound?
**A.** 1092.38 ± 0.42 kg/m3

**Q.** And the mass density (288.15 K, x1 = 0.7147)?
**A.** 1118.03 ± 0.42 kg/m3

**Q.** What about the mass density (288.15 K, x1 = 0.8103) of the same compound?
**A.** 1142.26 ± 0.43 kg/m3

**Q.** And the mass density (288.15 K, x1 = 0.8979)?
**A.** 1164.89 ± 0.43 kg/m3

**Q.** What about the mass density (288.15 K, x1 = 1) of the same compound?
**A.** 1191.93 ± 0.42 kg/m3

**Q.** What about the mass density (298.15 K, x1 = 0.1276) of the same compound?
**A.** 970.5 ± 0.41 kg/m3

**Q.** What about the mass density (298.15 K, x1 = 0.227) of the same compound?
**A.** 992.46 ± 0.41 kg/m3

**Q.** What about the mass density (298.15 K, x1 = 0.3268) of the same compound?
**A.** 1014.95 ± 0.41 kg/m3

**Q.** What about the mass density (298.15 K, x1 = 0.4189) of the same compound?
**A.** 1036.15 ± 0.42 kg/m3

**Q.** What about the mass density (298.15 K, x1 = 0.514) of the same compound?
**A.** 1058.41 ± 0.42 kg/m3

**Q.** And the mass density (298.15 K, x1 = 0.6112)?
**A.** 1081.63 ± 0.42 kg/m3

**Q.** And the mass density (298.15 K, x1 = 0.7147)?
**A.** 1106.86 ± 0.42 kg/m3

**Q.** What about the mass density (298.15 K, x1 = 0.8103) of the same compound?
**A.** 1130.71 ± 0.42 kg/m3

**Q.** What about the mass density (298.15 K, x1 = 0.8979) of the same compound?
**A.** 1152.99 ± 0.43 kg/m3

**Q.** And the mass density (298.15 K, x1 = 1)?
**A.** 1179.58 ± 0.42 kg/m3

**Q.** And the mass density (308.15 K, x1 = 0.1276)?
**A.** 961.22 ± 0.41 kg/m3

**Q.** What about the mass density (308.15 K, x1 = 0.227) of the same compound?
**A.** 982.9 ± 0.41 kg/m3

**Q.** What about the mass density (308.15 K, x1 = 0.3268) of the same compound?
**A.** 1005.09 ± 0.41 kg/m3

**Q.** What about the mass density (308.15 K, x1 = 0.4189) of the same compound?
**A.** 1025.99 ± 0.42 kg/m3

**Q.** And the mass density (308.15 K, x1 = 0.514)?
**A.** 1047.94 ± 0.42 kg/m3

**Q.** And the mass density (308.15 K, x1 = 0.6112)?
**A.** 1070.82 ± 0.42 kg/m3

**Q.** And the mass density (308.15 K, x1 = 0.7147)?
**A.** 1095.64 ± 0.42 kg/m3

**Q.** And the mass density (308.15 K, x1 = 0.8103)?
**A.** 1119.11 ± 0.42 kg/m3

**Q.** What about the mass density (308.15 K, x1 = 0.8979) of the same compound?
**A.** 1141.03 ± 0.43 kg/m3

**Q.** What about the mass density (308.15 K, x1 = 1) of the same compound?
**A.** 1167.16 ± 0.42 kg/m3

**Q.** What about the mass density (318.15 K, x1 = 0.1276) of the same compound?
**A.** 951.9 ± 0.41 kg/m3

**Q.** And the mass density (318.15 K, x1 = 0.227)?
**A.** 973.3 ± 0.41 kg/m3

**Q.** What about the mass density (318.15 K, x1 = 0.3268) of the same compound?
**A.** 995.19 ± 0.41 kg/m3

**Q.** What about the mass density (318.15 K, x1 = 0.4189) of the same compound?
**A.** 1015.78 ± 0.41 kg/m3

**Q.** And the mass density (318.15 K, x1 = 0.514)?
**A.** 1037.41 ± 0.42 kg/m3

**Q.** And the mass density (318.15 K, x1 = 0.6112)?
**A.** 1059.94 ± 0.42 kg/m3

**Q.** And the mass density (318.15 K, x1 = 0.7147)?
**A.** 1084.36 ± 0.42 kg/m3

**Q.** And the mass density (318.15 K, x1 = 0.8103)?
**A.** 1107.45 ± 0.42 kg/m3

**Q.** And the mass density (318.15 K, x1 = 0.8979)?
**A.** 1128.99 ± 0.42 kg/m3

**Q.** What about the mass density (318.15 K, x1 = 1) of the same compound?
**A.** 1154.67 ± 0.41 kg/m3
